Measurements: patent US6974799B2, “Compositions containing mixtures of tetrapeptides and tripeptides” (Sederma S.A.S., priority 2003, dated 2005)
No end group written: not given here. *: point of attachment. Oleoyl = CCCCCCCC/C=C\CCCCCCCC(=O)*; Palmitoyl = CCCCCCCCCCCCCCCC(=O)*

What was measured:
Collagen I = Collagen I in supernatant of normal human skin fibroblasts, Elisa; assay type: cell-based; settings: for Collagen I: Percentage of variation with respect to solvent: 3 × 10E−4% ascorbic acid, 3 days; for collagen I stimulation (in words): alone or in combination; for collagen I stimulation (in words) / effect on biomolecule synthesis under these experimental conditions (in words): Table 1 conditions
Protocol: In generating the data in Table 1, normal human skin fibroblasts were cultivated in 24 well-plates in DMEM with 10% of Fetal Calf Serum (“FCS”) during 24 h, then rinsed. The cells then received the products to be tested in a medium DMEM without FCS (“Fetal Calf Serum”) containing ascorbic acid. The contact of cells with product was carried out during 3 days, then supernatants was taken and frozen. Each test includes a negative control without solvent, a control solvent and a positive control (10^−6% of Transforming Growth Factor-β (“TGF-β”)). Each determination was carried out n=3. Several repetitions independent of the tests can be made. Assaying of the interesting molecules was carried out by Elisa (Collagen I & IV; Fibronectine) or by a colorimetric method (hyaluronic acid).
(§1) Normal human skin fibroblasts are cultivated in 24 well-plates in DMEM with 10% of FCS during 24 h, then rinsed. The cells then received the products to be tested in a medium DMEM without FCS containing ascorbic acid. The contact of cells with product was carried out during 3 days, then supernatants are taken and frozen. Each test included a negative control without solvent, a control solvent and a positive control (10^E-6% of TGF-β). Each determination was carried out n=3. Several repetitions independent of the tests were made. Assaying of the interesting molecules was carried out by Elisa (Collagen I & IV; Fibronectine) and by a calorimetric method (hyaluronic acid).

Hyaluronic Acid = assay: Hyaluronic acid in supernatant of normal human skin fibroblasts, colorimetric method; assay type: cell-based; settings: 3 × 10E−4% ascorbic acid, 3 days
Protocol: (§2) In generating the data in Table 1, normal human skin fibroblasts were cultivated in 24 well-plates in DMEM with 10% of Fetal Calf Serum (“FCS”) during 24 h, then rinsed. The cells then received the products to be tested in a medium DMEM without FCS (“Fetal Calf Serum”) containing ascorbic acid. The contact of cells with product was carried out during 3 days, then supernatants was taken and frozen. Each test includes a negative control without solvent, a control solvent and a positive control (10^−6% of Transforming Growth Factor-β (“TGF-β”)). Each determination was carried out n=3. Several repetitions independent of the tests can be made. Assaying of the interesting molecules was carried out by Elisa (Collagen I & IV; Fibronectine) or by a colorimetric method (hyaluronic acid). […] Higher concentrations were not tested because of cytotoxicity, and the other biomolecules were not assayed (n.t.=not tested) because of the lack of initial response in collagen I stimulation, which is the essential, primary parameter.
as §1

Collagen IV = Collagen IV in supernatant of normal human skin fibroblasts, Elisa; assay type: cell-based; settings: 3 × 10E−4% ascorbic acid, 3 days
Protocol: as §2, §1

Fibronectin = Fibronectin in supernatant of normal human skin fibroblasts, Elisa; assay type: cell-based; settings: 3 × 10E−4% ascorbic acid, 3 days
Protocol: as §2, §1

collagen [1] = assay: Increase in synthesis of collagen (in vitro), fibroblasts of human skin, ELISA; assay type: cell-based; settings: 72 hours
Protocol: Fibroblasts of human skin are incubated for 72 hours in two culture mediums enriched in vitamin C (1.5 and 15 ppm), in the presence of the peptide N-palmitoyl-Gly-Gln-Pro-Arg (SEQ ID NO: 3) at two different concentrations, 2.5 ppm and 3.6 ppm. After this incubation, the media is collected and cell viability is evaluated by MTT assay. The measurement of collagen is then carried out by ELISA in each cell lysate. Tests were done in triplicate.
In parallel, negative controls should be carried out under the same conditions, but in the absence of the peptides.
The following results, shown in Table 2, give the increase of collagen synthesis compared to the results obtained in the blank tests (without peptide): […]

collagen [2] = settings: background statement on EYELISS components; cited from earlier work

Acetyl-YGG
Collagen I: Percentage of variation with respect to solvent (Collagen I; 1 ppm): −2%
Collagen I: Percentage of variation with respect to solvent (Collagen I; 3 ppm): +5%
Collagen I: Percentage of variation with respect to solvent (Collagen I; 5 ppm): −11%
collagen I stimulation (in words) (Collagen I): do not show collagen I stimulation

N-Palmitoyl-Gly-Gln-Pro-Arg (Palmitoyl-GQPR) [Pal GQPR, 500 ppm solution sold as RIGIN by SEDERMA]
Hyaluronic Acid: Percentage of variation with respect to solvent (Hyaluronic Acid; 0.5 ppm): −4%
Hyaluronic Acid: Percentage of variation with respect to solvent (Hyaluronic Acid; 1.5 ppm): +9%
Hyaluronic Acid: Percentage of variation with respect to solvent (Hyaluronic Acid; 2.5 ppm): −13%
Hyaluronic Acid: Percentage of variation with respect to solvent (Hyaluronic Acid; 3.64 ppm): −1%
Collagen IV: Percentage of variation with respect to solvent (Collagen IV; 0.5 ppm): +5%
Collagen IV: Percentage of variation with respect to solvent (Collagen IV; 1.5 ppm): −8%
Collagen IV: Percentage of variation with respect to solvent (Collagen IV; 2.5 ppm): −5%
Collagen IV: Percentage of variation with respect to solvent (Collagen IV; 3.64 ppm): −14%
Collagen I: Percentage of variation with respect to solvent (Collagen I; 0.5 ppm): +4%
Collagen I: Percentage of variation with respect to solvent (Collagen I; 1.5 ppm): −1%
Collagen I: Percentage of variation with respect to solvent (Collagen I; 2.5 ppm): +19%
Collagen I: Percentage of variation with respect to solvent (Collagen I; 2.5 ppm, listed as N-Palmitoyl-Gly-Gln-Pro-Arg): +19%
Collagen I: Percentage of variation with respect to solvent (Collagen I; 3.64 ppm): +65%
Collagen I: Percentage of variation with respect to solvent (Collagen I; 3.64 ppm, listed as tetrapeptide): +65%
effect on biomolecule synthesis under these experimental conditions (in words) (Collagen I): stimulating effect
Fibronectin: Percentage of variation with respect to solvent (Fibronectin; 0.5 ppm): +1%
Fibronectin: Percentage of variation with respect to solvent (Fibronectin; 1.5 ppm): +15%
Fibronectin: Percentage of variation with respect to solvent (Fibronectin; 2.5 ppm): +35%
Fibronectin: Percentage of variation with respect to solvent (Fibronectin; 3.64 ppm): +56%
increase of collagen synthesis compared to blank tests (without peptide) (collagen [1]; peptide 2.5 ppm, Vitamin C 1.5 ppm): +10%
increase of collagen synthesis compared to blank tests (without peptide) (collagen [1]; peptide 2.5 ppm, Vitamin C 15 ppm): +27%
increase of collagen synthesis compared to blank tests (without peptide) (collagen [1]; peptide 3.6 ppm, Vitamin C 1.5 ppm): +29%
increase of collagen synthesis compared to blank tests (without peptide) (collagen [1]; peptide 3.6 ppm, Vitamin C 15 ppm): +42%

N-Palmitoyl-Gly-His-Lys [Pal GHK]
Hyaluronic Acid: Percentage of variation with respect to solvent (Hyaluronic Acid; 1 ppm): +3%
Hyaluronic Acid: Percentage of variation with respect to solvent (Hyaluronic Acid; 3 ppm): +11%
Hyaluronic Acid: Percentage of variation with respect to solvent (Hyaluronic Acid; 5 ppm): 0%
Hyaluronic Acid: Percentage of variation with respect to solvent (Hyaluronic Acid; 7.3 ppm): −1%
Collagen IV: Percentage of variation with respect to solvent (Collagen IV; 1 ppm): +5%
Collagen IV: Percentage of variation with respect to solvent (Collagen IV; 3 ppm): −4%
Collagen IV: Percentage of variation with respect to solvent (Collagen IV; 5 ppm): +6%
Collagen IV: Percentage of variation with respect to solvent (Collagen IV; 7.3 ppm): −9%
Collagen I: Percentage of variation with respect to solvent (Collagen I; 1 ppm): +9%
Collagen I: Percentage of variation with respect to solvent (Collagen I; 3 ppm): −11%
Collagen I: Percentage of variation with respect to solvent (Collagen I; 5 ppm): +11%
Collagen I: Percentage of variation with respect to solvent (Collagen I; 5 ppm, listed as N-Palmitoyl-Gly-His-Lys): +11%
Collagen I: Percentage of variation with respect to solvent (Collagen I; 7.3 ppm): −9%
Collagen I: Percentage of variation with respect to solvent (Collagen I; 7.3 ppm, listed as tripeptide): reduction in synthesis
effect on biomolecule synthesis under these experimental conditions (in words) (Collagen I): essentially no effect
Fibronectin: Percentage of variation with respect to solvent (Fibronectin; 1 ppm): +8%
Fibronectin: Percentage of variation with respect to solvent (Fibronectin; 3 ppm): +2%
Fibronectin: Percentage of variation with respect to solvent (Fibronectin; 5 ppm): −15%
Fibronectin: Percentage of variation with respect to solvent (Fibronectin; 7.3 ppm): +13%

N-Palmitoyl-Lys-Thr-Thr-Lys-Ser (Palmitoyl-KTTKS) [Pal KTTKS, commercially successful pentapeptide, MATRIXYL, available from SEDERMA, reference compound]
Hyaluronic Acid: Percentage of variation with respect to solvent (Hyaluronic Acid; 1 ppm): +3%
Hyaluronic Acid: Percentage of variation with respect to solvent (Hyaluronic Acid; 2 ppm): +26%
Hyaluronic Acid: Percentage of variation with respect to solvent (Hyaluronic Acid; 4 ppm): +28%
Hyaluronic Acid: Percentage of variation with respect to solvent (Hyaluronic Acid; 8 ppm): +31%
Collagen IV: Percentage of variation with respect to solvent (Collagen IV; 1 ppm): +6%
Collagen IV: Percentage of variation with respect to solvent (Collagen IV; 2 ppm): +12%
Collagen IV: Percentage of variation with respect to solvent (Collagen IV; 4 ppm): +15%
Collagen IV: Percentage of variation with respect to solvent (Collagen IV; 8 ppm): +22%
Collagen I: Percentage of variation with respect to solvent (Collagen I; 1 ppm): +8%
Collagen I: Percentage of variation with respect to solvent (Collagen I; 2 ppm): +30%
Collagen I: Percentage of variation with respect to solvent (Collagen I; 4 ppm): +48%
Collagen I: Percentage of variation with respect to solvent (Collagen I; 8 ppm): +93%
Fibronectin: Percentage of variation with respect to solvent (Fibronectin; 1 ppm): +24%
Fibronectin: Percentage of variation with respect to solvent (Fibronectin; 2 ppm): +20%
Fibronectin: Percentage of variation with respect to solvent (Fibronectin; 4 ppm): +74%
Fibronectin: Percentage of variation with respect to solvent (Fibronectin; 8 ppm): +100%

Oleoyl-RGD
Collagen I: Percentage of variation with respect to solvent (Collagen I; 1 ppm): +5%
Collagen I: Percentage of variation with respect to solvent (Collagen I; 3 ppm): −3%
collagen I stimulation (in words) (Collagen I): do not show collagen I stimulation

Oleoyl-RGDS [oleoyl derivative of RGDS=Arg-Gly-Asp-Ser]
Collagen I: Percentage of variation with respect to solvent (Collagen I; 1 ppm): −7%
Collagen I: Percentage of variation with respect to solvent (Collagen I; 3 ppm): −2%
collagen I stimulation (in words) (Collagen I): do not show collagen I stimulation

Pal-YGGF (Palmitoyl-YGGF) [palmitoyl derivative of YGGF=Tyr-Gly-Gly-Phe, fragment of enkephaline]
Collagen I: Percentage of variation with respect to solvent (Collagen I; 1 ppm): +5%
Collagen I: Percentage of variation with respect to solvent (Collagen I; 3 ppm): −6%
Collagen I: Percentage of variation with respect to solvent (Collagen I; 5 ppm): +4%
collagen I stimulation (in words) (Collagen I): do not show collagen I stimulation

Transforming Growth Factor-β [TGF-β, reference compound]
Hyaluronic Acid: Percentage of variation with respect to solvent (Hyaluronic Acid; 10^E−6%): +43%
Collagen IV: Percentage of variation with respect to solvent (Collagen IV; 10^E−6%): +4%
Fibronectin: Percentage of variation with respect to solvent (Fibronectin; 10^E−6%): +176%

Val-Trp
collagen stimulating activity (in words) (collagen [2]): no significant collagen stimulating activity
